According to patent publication US20080009418A1, “Selective Inhibitors” (Alchemia LTD., priority 2004, published 2008):

Tests used:
Details in all cases: compound at 10 μM
Human δ-opioid (DOP) = biological target: T1, Human δ-opioid (DOP) (Homo sapiens, UniProt P41143); experiment: Radioligand binding, human δ-opioid (DOP) membranes, FlashPlate, [3H]-Bremazocine
T1 construct: purchased Perkin Elmer Biosignal
Outline: (§1)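 Cloned human receptor membranes were coated onto FlashPlate wells and incubated with radioligand and compound (added from a 0.5 mM DMSO daughter plate) for 1 hour at room temperature in the dark. Scintillation counting gave percent inhibition, with DMSO defining total and reference ligand defining non-specific binding.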

Human κ-Opioid (KOP) = biological target: T2, Human κ-Opioid (KOP) (Homo sapiens, UniProt P41145); experiment: Radioligand binding, human κ-opioid (KOP) membranes, filtration, [3H]-Diprenorphine
T2 construct: purchased Perkin Elmer Biosignal
Outline: (§2)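 Percent inhibition of radioligand binding measured on recombinant human membranes: NK1 with [125I]-Substance P, KOP with [3H]-Diprenorphine. Incubation 1 h at room temperature, then harvest onto 0.3% PEI-soaked filters, cold Tris-HCl pH 7.4 washes and scintillation counting; non-specific binding from reference ligand wells.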

Human Melanocortin (MC3) = biological target: T3, Human Melanocortin (MC3) (Homo sapiens, UniProt P41968); experiment: Radioligand binding, human melanocortin MC3 membranes, FlashPlate, [125I]-NDP-αMSH
T3 construct: purchased Perkin Elmer Biosignal
Outline: as §1

Human Melanocortin (MC4) = biological target: T4, Human Melanocortin (MC4) (Homo sapiens, UniProt P32245); experiment: Radioligand binding, human melanocortin MC4 membranes, FlashPlate, [125I]-NDP-αMSH
T4 construct: purchased Perkin Elmer Biosignal
Outline: as §1

Human melanocortin (MC5) = biological target: T5, Human melanocortin (MC5) (Homo sapiens, UniProt P33032); experiment: Radioligand binding, human melanocortin MC5 membranes, FlashPlate, [125I]-NDP-αMSH
T5 construct: purchased Perkin Elmer Biosignal
Outline: as §1

[1] = biological target: T6, Human melanin-concentrating hormone (MCH1) (Homo sapiens, UniProt Q99705); experiment: Radioligand binding, human melanin-concentrating hormone MCH1 membranes, FlashPlate, [125I]-S36057
T6 construct: purchased Perkin Elmer Biosignal
Outline: as §1

Human μ-opioid (MOP) = biological target: T7, Human μ-opioid (MOP) (Homo sapiens, UniProt P35372); experiment: Radioligand binding, human μ-opioid (MOP) membranes, FlashPlate, [3H]-Naloxone
T7 construct: purchased Perkin Elmer Biosignal
Outline: as §1

Human neurokinin (NK1) = biological target: T8, Human neurokinin (NK1) (Homo sapiens, UniProt P25103); experiment: Radioligand binding, human neurokinin NK1 membranes, filtration, [125I]-Substance P
T8 construct: purchased Perkin Elmer Biosignal
Outline: as §2

[2] = biological target: T9, Human neuropeptide Y (NPY-Y1) (Homo sapiens, UniProt P25929); experiment: Radioligand binding, human neuropeptide Y NPY-Y1 membranes, FlashPlate, [125I]-PYY
T9 construct: purchased Perkin Elmer Biosignal
T9 sequence (P25929 1-384): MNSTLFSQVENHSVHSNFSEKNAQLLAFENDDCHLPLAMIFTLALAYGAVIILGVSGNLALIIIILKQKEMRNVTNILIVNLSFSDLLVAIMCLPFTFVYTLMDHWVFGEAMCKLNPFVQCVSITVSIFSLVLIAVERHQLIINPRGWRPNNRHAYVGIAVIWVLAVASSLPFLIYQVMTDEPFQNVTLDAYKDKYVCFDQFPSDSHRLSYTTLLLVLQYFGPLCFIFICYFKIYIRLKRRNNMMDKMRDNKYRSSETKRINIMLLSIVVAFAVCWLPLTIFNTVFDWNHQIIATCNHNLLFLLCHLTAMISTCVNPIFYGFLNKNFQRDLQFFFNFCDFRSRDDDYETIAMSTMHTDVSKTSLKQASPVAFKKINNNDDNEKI
Outline: as §1

Human opioid (ORL1) = biological target: T10, Human opioid (ORL1) (Homo sapiens, UniProt P41146); experiment: Radioligand binding, human opioid ORL1 membranes, FlashPlate, [125I]-Nociceptin
T10 construct: purchased Perkin Elmer Biosignal
Outline: as §1

Mouse urotensin (mUR2) = biological target: T11, Mouse urotensin (mUR2) (Mus musculus, UniProt Q8VIH9); experiment: Radioligand binding, mouse urotensin mUR2 membranes, FlashPlate, [125I]-Urotensin II
T11 construct: purchased Perkin Elmer Biosignal
T11 sequence (Q8VIH9 1-385): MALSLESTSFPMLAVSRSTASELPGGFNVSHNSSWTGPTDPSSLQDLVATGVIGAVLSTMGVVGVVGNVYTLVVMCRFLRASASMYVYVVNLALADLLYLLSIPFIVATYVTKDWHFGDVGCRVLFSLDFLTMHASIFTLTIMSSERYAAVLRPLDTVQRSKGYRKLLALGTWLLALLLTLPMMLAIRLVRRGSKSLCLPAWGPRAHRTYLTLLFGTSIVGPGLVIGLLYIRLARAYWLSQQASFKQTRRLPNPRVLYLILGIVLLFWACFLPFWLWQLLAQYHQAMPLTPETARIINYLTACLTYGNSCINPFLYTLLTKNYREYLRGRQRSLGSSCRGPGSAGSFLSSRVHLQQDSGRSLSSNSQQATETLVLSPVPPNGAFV
Outline: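 Cloned mouse urotensin (mUR2) receptor membranes from Perkin Elmer Biosignal were immobilized in FlashPlate microplates using a proprietary coating. Each well got 19.5 μl buffer, then 0.5 μl of DMSO, reference ligand, or compound. Adding 5 μl of [125I]-Urotensin II, diluted to 5× final concentration in binding buffer, started binding. Plates were sealed with TopSeal-A and incubated 1 hour at room temperature in the dark. Wells were counted for 30 seconds each on a TopCount after a 60-second delay, and percentage inhibition was calculated.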

T10 sequence (P41146 whole entry): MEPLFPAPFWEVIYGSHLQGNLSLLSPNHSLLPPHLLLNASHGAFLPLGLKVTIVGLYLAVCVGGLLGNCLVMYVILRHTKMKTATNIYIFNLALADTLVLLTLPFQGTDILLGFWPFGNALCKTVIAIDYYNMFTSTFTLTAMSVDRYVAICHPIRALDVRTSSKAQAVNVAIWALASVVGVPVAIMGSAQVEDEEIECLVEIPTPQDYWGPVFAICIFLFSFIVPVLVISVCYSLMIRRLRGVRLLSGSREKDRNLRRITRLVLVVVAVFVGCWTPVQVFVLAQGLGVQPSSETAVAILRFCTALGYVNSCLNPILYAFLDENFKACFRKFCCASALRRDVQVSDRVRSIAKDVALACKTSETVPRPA
T2 sequence (P41145 whole entry): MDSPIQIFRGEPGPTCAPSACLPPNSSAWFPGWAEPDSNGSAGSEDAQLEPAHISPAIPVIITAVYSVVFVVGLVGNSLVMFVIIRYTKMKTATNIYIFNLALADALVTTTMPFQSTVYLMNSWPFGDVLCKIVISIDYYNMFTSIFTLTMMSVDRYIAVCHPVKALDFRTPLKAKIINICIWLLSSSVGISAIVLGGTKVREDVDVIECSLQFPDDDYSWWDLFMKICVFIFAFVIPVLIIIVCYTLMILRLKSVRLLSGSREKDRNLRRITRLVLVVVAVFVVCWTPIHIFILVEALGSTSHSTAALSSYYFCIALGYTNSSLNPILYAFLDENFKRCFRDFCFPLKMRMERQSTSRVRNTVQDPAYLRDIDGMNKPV
T8 sequence (P25103 whole entry): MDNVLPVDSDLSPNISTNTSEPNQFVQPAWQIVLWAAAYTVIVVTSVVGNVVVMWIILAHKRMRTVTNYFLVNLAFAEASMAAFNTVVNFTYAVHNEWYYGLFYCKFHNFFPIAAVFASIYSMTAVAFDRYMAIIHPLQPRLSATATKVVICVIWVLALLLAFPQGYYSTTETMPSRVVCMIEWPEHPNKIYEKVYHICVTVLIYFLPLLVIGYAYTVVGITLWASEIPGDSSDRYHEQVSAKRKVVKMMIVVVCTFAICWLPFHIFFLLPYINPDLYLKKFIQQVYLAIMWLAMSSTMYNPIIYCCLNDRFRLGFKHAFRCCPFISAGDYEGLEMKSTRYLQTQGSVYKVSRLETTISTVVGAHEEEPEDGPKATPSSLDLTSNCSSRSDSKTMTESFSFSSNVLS
T1 sequence (P41143 whole entry): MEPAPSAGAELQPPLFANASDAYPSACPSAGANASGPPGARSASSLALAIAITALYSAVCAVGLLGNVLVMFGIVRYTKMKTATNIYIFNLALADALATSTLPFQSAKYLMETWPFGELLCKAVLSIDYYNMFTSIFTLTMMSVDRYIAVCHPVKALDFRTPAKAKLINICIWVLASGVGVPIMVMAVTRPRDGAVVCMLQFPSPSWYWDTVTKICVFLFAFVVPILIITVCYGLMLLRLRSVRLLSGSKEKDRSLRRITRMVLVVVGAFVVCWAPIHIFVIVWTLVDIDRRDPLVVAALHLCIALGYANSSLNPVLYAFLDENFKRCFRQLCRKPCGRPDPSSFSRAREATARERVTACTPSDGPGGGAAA
T6 sequence (Q99705 whole entry): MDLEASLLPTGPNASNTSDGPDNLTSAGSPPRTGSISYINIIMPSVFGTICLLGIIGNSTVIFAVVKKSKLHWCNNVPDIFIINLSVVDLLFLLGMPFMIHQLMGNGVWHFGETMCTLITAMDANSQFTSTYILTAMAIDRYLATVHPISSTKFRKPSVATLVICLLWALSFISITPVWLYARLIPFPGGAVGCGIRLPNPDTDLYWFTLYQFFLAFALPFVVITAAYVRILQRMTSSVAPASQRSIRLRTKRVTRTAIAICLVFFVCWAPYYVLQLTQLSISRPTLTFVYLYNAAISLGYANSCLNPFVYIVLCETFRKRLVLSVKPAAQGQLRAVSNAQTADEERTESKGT
T3 sequence (P41968 whole entry): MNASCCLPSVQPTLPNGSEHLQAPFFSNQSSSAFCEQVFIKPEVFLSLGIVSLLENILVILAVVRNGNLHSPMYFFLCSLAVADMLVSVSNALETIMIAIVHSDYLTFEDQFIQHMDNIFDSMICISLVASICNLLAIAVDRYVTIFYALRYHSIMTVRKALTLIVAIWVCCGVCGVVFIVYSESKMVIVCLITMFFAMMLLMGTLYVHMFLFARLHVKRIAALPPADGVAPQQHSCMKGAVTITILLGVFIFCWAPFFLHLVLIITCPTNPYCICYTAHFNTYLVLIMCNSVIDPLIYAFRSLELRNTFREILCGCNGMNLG
T5 sequence (P33032 whole entry): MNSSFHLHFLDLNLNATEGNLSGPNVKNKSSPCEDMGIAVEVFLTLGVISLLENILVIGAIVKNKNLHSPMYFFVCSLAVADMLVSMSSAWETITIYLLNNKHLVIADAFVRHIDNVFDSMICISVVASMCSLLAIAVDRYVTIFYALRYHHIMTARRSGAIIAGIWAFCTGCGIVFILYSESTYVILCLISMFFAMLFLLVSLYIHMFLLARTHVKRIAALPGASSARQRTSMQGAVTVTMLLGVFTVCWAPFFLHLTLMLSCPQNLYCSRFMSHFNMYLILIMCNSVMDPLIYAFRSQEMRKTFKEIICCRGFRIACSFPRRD
T4 sequence (P32245 whole entry): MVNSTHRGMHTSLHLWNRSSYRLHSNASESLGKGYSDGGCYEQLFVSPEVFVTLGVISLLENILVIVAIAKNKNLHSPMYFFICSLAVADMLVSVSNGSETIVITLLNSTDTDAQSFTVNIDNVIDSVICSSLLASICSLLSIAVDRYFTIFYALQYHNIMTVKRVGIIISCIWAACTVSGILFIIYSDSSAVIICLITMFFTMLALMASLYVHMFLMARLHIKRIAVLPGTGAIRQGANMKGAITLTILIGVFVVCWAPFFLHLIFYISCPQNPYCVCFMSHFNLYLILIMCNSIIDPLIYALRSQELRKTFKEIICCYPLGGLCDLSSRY
T7 sequence (P35372 whole entry): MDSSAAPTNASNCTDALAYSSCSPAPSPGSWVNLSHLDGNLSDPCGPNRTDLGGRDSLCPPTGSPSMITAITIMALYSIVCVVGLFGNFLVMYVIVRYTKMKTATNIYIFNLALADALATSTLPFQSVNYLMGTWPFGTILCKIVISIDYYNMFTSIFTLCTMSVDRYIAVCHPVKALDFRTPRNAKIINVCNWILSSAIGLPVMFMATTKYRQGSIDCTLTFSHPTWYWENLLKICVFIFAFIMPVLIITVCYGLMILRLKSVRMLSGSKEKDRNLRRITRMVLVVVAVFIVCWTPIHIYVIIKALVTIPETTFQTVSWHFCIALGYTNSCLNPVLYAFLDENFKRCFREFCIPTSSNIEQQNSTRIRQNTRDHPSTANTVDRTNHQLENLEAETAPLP

Compound	A1: inhibition of radioligand binding, human δ-opioid (DOP) (Human δ-opioid (DOP); [3H]-Bremazocine)	A2: inhibition of radioligand binding, human κ-opioid (KOP) (Human κ-Opioid (KOP); [3H]-Diprenorphine)	A3: inhibition of radioligand binding, human melanocortin (MC3) (Human Melanocortin (MC3); [125I]-NDP-αMSH)	A4: inhibition of radioligand binding, human melanocortin (MC4) (Human Melanocortin (MC4); [125I]-NDP-αMSH)	A5: inhibition of radioligand binding, human melanocortin (MC5) (Human melanocortin (MC5); [125I]-NDP-αMSH)	A6: inhibition of radioligand binding, human melanin-concentrating hormone (MCH1) ([1]; [125I]-S36057)	A7: inhibition of radioligand binding, human μ-opioid (MOP) (Human μ-opioid (MOP); [3H]-Naloxone)	A8: inhibition of radioligand binding, human neurokinin (NK1) (Human neurokinin (NK1); [125I]-Substance P)	A9: inhibition of radioligand binding, human neuropeptide Y (NPY-Y1) ([2]; [125I]-PYY)	A10: inhibition of radioligand binding, human opioid (ORL1) (Human opioid (ORL1); [125I]-Nociceptin)	A11: inhibition of radioligand binding, mouse urotensin (mUR2) (Mouse urotensin (mUR2); [125I]-Urotensin II)	other results
CSC1O[C@H](COCc2ccc3ccccc3c2)[C@@H](O)[C@@H](OCc2ccc(-c3ccccc3)cc2)[C@H]1NC(=O)CCCNC(=N)N (stereo partly shown) [compound 300]	− (“−” indicates less than 50% inhibition at 10 μM)	− (“−” indicates less than 50% inhibition at 10 μM)	− (“−” indicates less than 50% inhibition at 10 μM)	− (“−” indicates less than 50% inhibition at 10 μM)	+ (“+” indicates greater than 50% inhibition at 10 μM)	− (“−” indicates less than 50% inhibition at 10 μM)	− (“−” indicates less than 50% inhibition at 10 μM)	+ (“+” indicates greater than 50% inhibition at 10 μM)	− (“−” indicates less than 50% inhibition at 10 μM)	− (“−” indicates less than 50% inhibition at 10 μM)	− (“−” indicates less than 50% inhibition at 10 μM)	–
COCC1OC(OCc2ccc3ccccc3c2)C(NC(=O)CCNC(=N)N)C(OCc2ccc3ccccc3c2)C1O (stereo not shown) [compound 547]	− (“−” indicates less than 50% inhibition at 10 μM)	− (“−” indicates less than 50% inhibition at 10 μM)	− (“−” indicates less than 50% inhibition at 10 μM)	− (“−” indicates less than 50% inhibition at 10 μM)	− (“−” indicates less than 50% inhibition at 10 μM)	+ (“+” indicates greater than 50% inhibition at 10 μM)	− (“−” indicates less than 50% inhibition at 10 μM)	+ (“+” indicates greater than 50% inhibition at 10 μM)	− (“−” indicates less than 50% inhibition at 10 μM)	− (“−” indicates less than 50% inhibition at 10 μM)	− (“−” indicates less than 50% inhibition at 10 μM)	–
CC(=O)N[C@H]1C(NC(=O)CNC(=O)OC(C)(C)C)O[C@H](CO)[C@@H](O)[C@@H]1OCc1ccccc1 (stereo partly shown) [compound 359]	− (“−” indicates less than 50% inhibition at 10 μM)	− (“−” indicates less than 50% inhibition at 10 μM)	− (“−” indicates less than 50% inhibition at 10 μM)	− (“−” indicates less than 50% inhibition at 10 μM)	− (“−” indicates less than 50% inhibition at 10 μM)	− (“−” indicates less than 50% inhibition at 10 μM)	− (“−” indicates less than 50% inhibition at 10 μM)	+ (“+” indicates greater than 50% inhibition at 10 μM)	+ (“+” indicates greater than 50% inhibition at 10 μM)	− (“−” indicates less than 50% inhibition at 10 μM)	− (“−” indicates less than 50% inhibition at 10 μM)	–
CO[C@H]1[C@H](O)[C@@H](COCc2ccc(-c3ccccc3)cc2)OC(OCc2ccc(-c3ccccc3)cc2)[C@@H]1NC(=O)CCNC(=N)N (stereo partly shown) [compound 52]	–	–	–	–	–	–	–	–	–	–	–	A1 radioligand binding inhibition (Human δ-opioid (DOP); human δ-opioid (DOP) membranes): − (“−” indicates less than 50% inhibition at 10 μM); A2 radioligand binding inhibition (Human κ-Opioid (KOP); human κ-opioid (KOP) membranes): − (“−” indicates less than 50% inhibition at 10 μM); A3 radioligand binding inhibition (Human Melanocortin (MC3); human melanocortin MC3 membranes): + (“+” indicates greater than 50% inhibition at 10 μM); A4 radioligand binding inhibition (Human Melanocortin (MC4); human melanocortin MC4 membranes): + (“+” indicates greater than 50% inhibition at 10 μM); A5 radioligand binding inhibition (Human melanocortin (MC5); human melanocortin MC5 membranes): + (“+” indicates greater than 50% inhibition at 10 μM); A6 radioligand binding inhibition ([1]; human MCH1 membranes): + (“+” indicates greater than 50% inhibition at 10 μM); A7 radioligand binding inhibition (Human μ-opioid (MOP); human μ-opioid (MOP) membranes): + (“+” indicates greater than 50% inhibition at 10 μM); A8 radioligand binding inhibition (Human neurokinin (NK1); human neurokinin NK1 membranes): + (“+” indicates greater than 50% inhibition at 10 μM); A9 radioligand binding inhibition ([2]; human NPY-Y1 membranes): − (“−” indicates less than 50% inhibition at 10 μM); A10 radioligand binding inhibition (Human opioid (ORL1); human ORL1 membranes): + (“+” indicates greater than 50% inhibition at 10 μM); A11 radioligand binding inhibition (Mouse urotensin (mUR2); mouse urotensin mUR2 membranes): − (“−” indicates less than 50% inhibition at 10 μM)
CO[C@H]1[C@H](O)[C@@H](COCc2ccccc2)OC(OCc2ccc(Cl)cc2)[C@@H]1NC(=O)CNC(=N)N (stereo partly shown) [compound 101]	–	–	–	–	–	–	–	–	–	–	–	A1 radioligand binding, percentage inhibition (Human δ-opioid (DOP); [3H]-Bremazocine): − (“−” indicates less than 50% inhibition at 10 μM); A2 radioligand binding, percentage inhibition (Human κ-Opioid (KOP); [3H]-Diprenorphine): − (“−” indicates less than 50% inhibition at 10 μM); A3 radioligand binding, percentage inhibition (Human Melanocortin (MC3); [125I]-NDP-αMSH): − (“−” indicates less than 50% inhibition at 10 μM); A4 radioligand binding, percentage inhibition (Human Melanocortin (MC4); [125I]-NDP-αMSH): − (“−” indicates less than 50% inhibition at 10 μM); A5 radioligand binding, percentage inhibition (Human melanocortin (MC5); [125I]-NDP-αMSH): + (“+” indicates greater than 50% inhibition at 10 μM); A6 radioligand binding, percentage inhibition ([1]; [125I]-S36057): − (“−” indicates less than 50% inhibition at 10 μM); A7 radioligand binding, percentage inhibition (Human μ-opioid (MOP); [3H]-Naloxone): − (“−” indicates less than 50% inhibition at 10 μM); A8 radioligand binding, percentage inhibition (Human neurokinin (NK1); [125I]-Substance P): − (“−” indicates less than 50% inhibition at 10 μM); A9 radioligand binding, percentage inhibition ([2]; [125I]-PYY): − (“−” indicates less than 50% inhibition at 10 μM); A10 radioligand binding, percentage inhibition (Human opioid (ORL1); [125I]-Nociceptin): − (“−” indicates less than 50% inhibition at 10 μM); A11 radioligand binding, percentage inhibition (Mouse urotensin (mUR2); [125I]-Urotensin II): − (“−” indicates less than 50% inhibition at 10 μM)
